Results taken from PMC7558026, “Exploring and applying the substrate promiscuity of a C-glycosyltransferase in the chemo-enzymatic synthesis of bioactive C-glycosides” (Nature Communications, 2020).
Several values for one entry are separate records, joined by “and”; a condition that tells them apart may be missing. Equal entries are not always repeated. Entries after “also recorded” stand apart in the source; their conditions may differ.

Columns and labels:
[1] = tested on: Influenza A/WSN/33 (H1N1); assay: microbe, parasite or virus in culture; assay type: cell-based; settings: final concentration 20 μM, — = no inhibition activity, read-out: Inhibitory Rates, anti-influenza A virus activity
[2] = biological target: T1, SGLT2 (Homo sapiens, UniProt P31639); assay: 1-NBDG uptake in HEK293 cells stably expressing SGLT2; assay type: cell-based; settings: for inhibition at 10 µM: HEK293, compound at 10 μM, read-out: SGLT2 inhibitory rates; for inhibition at 10 µM / SGLT2 inhibitory rates: triplicate; for SGLT2 inhibitory rates: compound at 10 μM, 10 µM
T1 construct: Human full-length SGLT2 cDNA (NM_003041.3) was synthesized; expressed in transfected cells; host or cells: HEK293, retroviral transduction with pMSCVpuro-SGLT2, puromycin selected
T1 sequence (P31639 1-672): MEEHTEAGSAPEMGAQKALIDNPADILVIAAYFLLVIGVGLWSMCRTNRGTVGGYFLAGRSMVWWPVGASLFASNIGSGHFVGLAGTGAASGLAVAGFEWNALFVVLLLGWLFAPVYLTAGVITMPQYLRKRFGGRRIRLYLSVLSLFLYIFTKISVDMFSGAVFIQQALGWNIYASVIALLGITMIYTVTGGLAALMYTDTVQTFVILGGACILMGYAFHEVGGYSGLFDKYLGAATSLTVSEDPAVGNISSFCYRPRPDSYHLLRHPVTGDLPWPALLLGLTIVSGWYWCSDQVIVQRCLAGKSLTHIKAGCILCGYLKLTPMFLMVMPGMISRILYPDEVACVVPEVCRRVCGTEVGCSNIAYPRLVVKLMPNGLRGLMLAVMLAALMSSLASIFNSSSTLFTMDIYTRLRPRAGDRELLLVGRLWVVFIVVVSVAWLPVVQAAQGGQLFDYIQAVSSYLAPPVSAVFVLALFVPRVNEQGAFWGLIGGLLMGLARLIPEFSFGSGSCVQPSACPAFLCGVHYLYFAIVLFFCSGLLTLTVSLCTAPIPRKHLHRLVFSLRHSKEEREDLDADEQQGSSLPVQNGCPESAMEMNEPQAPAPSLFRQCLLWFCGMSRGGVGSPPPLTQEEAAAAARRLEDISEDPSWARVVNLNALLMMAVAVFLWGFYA

[3] = biological target: T2, SGLT1 (Homo sapiens, UniProt P13866); assay: 1-NBDG uptake in HEK293 cells stably expressing SGLT1; assay type: cell-based; settings: HEK293, compound at 10 μM; triplicate; read-out: SGLT1 inhibitory rates
T2 construct: The full-length SGLT1 cDNA was obtained by PCR with forward primer; expressed in transfected cells
T2 sequence (P13866 1-664): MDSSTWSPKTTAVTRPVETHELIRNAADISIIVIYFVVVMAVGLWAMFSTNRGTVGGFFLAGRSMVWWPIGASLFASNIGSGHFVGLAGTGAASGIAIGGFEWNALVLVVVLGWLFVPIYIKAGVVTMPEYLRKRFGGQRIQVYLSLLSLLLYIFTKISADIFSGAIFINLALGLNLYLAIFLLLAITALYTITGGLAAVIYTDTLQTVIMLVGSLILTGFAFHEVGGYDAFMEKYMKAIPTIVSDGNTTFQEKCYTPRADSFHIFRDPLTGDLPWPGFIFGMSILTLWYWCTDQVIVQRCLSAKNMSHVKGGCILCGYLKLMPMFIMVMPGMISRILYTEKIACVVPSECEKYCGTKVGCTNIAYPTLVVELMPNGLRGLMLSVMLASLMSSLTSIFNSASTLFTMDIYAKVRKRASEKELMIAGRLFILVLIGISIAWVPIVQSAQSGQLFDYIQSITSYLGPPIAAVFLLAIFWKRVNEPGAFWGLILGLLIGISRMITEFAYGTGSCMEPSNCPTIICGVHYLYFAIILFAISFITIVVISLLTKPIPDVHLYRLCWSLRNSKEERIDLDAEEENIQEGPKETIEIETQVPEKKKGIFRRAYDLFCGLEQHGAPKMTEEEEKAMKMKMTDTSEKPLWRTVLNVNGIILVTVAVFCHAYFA

[4] = tested on: alloxan-induced DM mice; assay: Hypoglycemic effect in alloxan-induced diabetic mellitus (DM) mice; assay type: in vivo; settings: for OD505nm (nonfasting blood glucose): individual mice
Method: Type 1 diabetes mellitus (T1DM) mice were established by intravenous injection of alloxan tetrahydrate (68 mg kg^‒1 BW). […] Nonfasting blood glucose was kinetically monitored at 1, 2, 4, 6, 8, 24, and 48 h after treatment with 46a.

[5] = tested on: ICR mice; assay: Oral glucose-tolerance test (OGTT) in normal ICR mice; assay type: in vivo; settings: for OD505nm (blood glucose, GOD assay) in OGTT: individual mice
Method: The hypoglycemic effect of 46a was firstly evaluated by oral glucose-tolerance test (OGTT) in mice with normal blood glucose levels. Male Institute of Cancer Research (ICR) mice weighing 24–26 g were obtained from Beijing Vital River Laboratory Animal Technology Co., Ltd (Beijing, China) and divided into three groups (n = 7–8). […] After 2 h of fasting, blood samples were collected from the tails for determination of baseline values of blood glucose (0 min). The mice were then orally administered glucose (2 g kg^‒1 BW), and blood samples were collected at 15, 30, 60, and 120 min. A glucose oxidase (GOD) assay was used for blood glucose-level measurement. The values of area under the glucose-time curve (AUC) were calculated.

[6] = tested on: KKAy mice; assay: Hypoglycemic effect in T2DM KKAy mice, blood glucose; assay type: in vivo; settings: for blood glucose: individual mice
Method: (§1) To evaluate the hypoglycemic effect of 46a in type 2 diabetes mellitus (T2DM), female KKAy mice weighing 42–48 g were obtained from the Animal Center of the Institute of Laboratory Animal Sciences, Chinese Academy of Medical Sciences and Peking Union Medical College. […] Blood samples were collected at 1, 2, 4, 6, 8, 24, and 48 h after treatment. […] The glucose levels in urine 4 h and 6 h after administration were also determined using a Biosen C-Line Glucose analyzer (EKF Diagnostics, Germany).

[7] = tested on: KKAy mice; assay: Urinary glucose excretion in T2DM KKAy mice; assay type: in vivo; settings: for glucose in urine: 46a 100 mg kg^‒1 or dapagliflozin 5mg/kg, individual mice
Method: as §1

OCC1OC(c2c(O)cc(O)c(Cc3ccc4nccnc4c3)c2O)C(O)C(O)C1O (stereo not shown) [Compound 44a] was tested, and the inhibition at 20 µM [1] was 82.8%, the inhibition at 10 µM [2] was greater than 96% and the SGLT2 inhibitory rates [2] was 96.6%. It also gave an inhibition at 10 µM [3] of 31.8%.

For Cc1ccc(Cc2c(O)cc(O)c(C3OC(CO)C(O)C(O)C3O)c2O)cc1 (stereo not shown) [Compound 46a], the “OD505nm (nonfasting blood glucose)” value ([4]; 0h, alloxan-induced DM mice, single dose 46a 100 mg kg^‒1 or dapagliflozin 5 mg kg^‒1) was 0.431 and 0.458 and 0.49 and 0.52 and 0.521 and 0.444 and 0.562 and 0.464, the “OD505nm (nonfasting blood glucose)” value ([4]; 1h, same doses) was 0.26 and 0.308 (2×) and 0.339 and 0.305 and 0.23 and 0.256 and 0.248 and the “OD505nm (nonfasting blood glucose)” value ([4]; 2h, same doses) was 0.231 and 0.293 and 0.455 and 0.311 and 0.26 and 0.191 and 0.29 and 0.211. The “OD505nm (nonfasting blood glucose)” value ([4]; 4h, same doses) was 0.321 and 0.404 and 0.412 and 0.349 and 0.326 and 0.246 and 0.294 and 0.251, the “OD505nm (nonfasting blood glucose)” value ([4]; 8h, same doses) was 0.424 and 0.434 and 0.432 and 0.559 and 0.489 and 0.42 and 0.457 and 0.316 and the “OD505nm (nonfasting blood glucose)” value ([4]; 24h, same doses) was 0.5 and 0.59 and 0.679 and 0.688 and 0.606 and 0.51 and 0.507 and 0.483. The “OD505nm (nonfasting blood glucose)” value ([4]; 48h, same doses) was 0.317 and 0.566 and 0.646 and 0.639 and 0.631 and 0.47 and 0.542 and 0.494, the “hypoglycemic activity (in words)” value ([4]; alloxan-induced DM mice, oral single administration) was “exhibited obviously hypoglycemic activity” and the inhibition at 10 µM [2] was greater than 96%. The SGLT2 inhibitory rates [2] was 100%, the “increase of SGLT2 inhibitory activity compared to the unsubstituted glycoside 38a” value ([2]; from IC50 values, 46a vs 38a) was “more than 17 times” and the “OD505nm (blood glucose, GOD assay) in OGTT” value (“OD505nm … in OGTT” for short) ([5]; 0 min, ICR mice, oral 46a 100 mg kg^‒1 or dapagliflozin 5 mg kg^‒1) was 0.153 and 0.163 and 0.176 and 0.168 and 0.167 and 0.175 and 0.178. The “OD505nm … in OGTT” value ([5]; 15 min after glucose 2 g kg^‒1, oral 46a 100 mg kg^‒1 or dapagliflozin 5 mg kg^‒1) was 0.178 and 0.123 and 0.205 and 0.183 and 0.193 and 0.203 and 0.189, the “OD505nm … in OGTT” value ([5]; 30 min after glucose, same doses) was 0.183 and 0.213 and 0.193 and 0.202 and 0.218 and 0.205 and 0.211 and the “OD505nm … in OGTT” value ([5]; 60 min after glucose, same doses) was 0.19 (2×) and 0.208 and 0.2 and 0.178 and 0.187 and 0.202. The “OD505nm … in OGTT” value ([5]; 120 min after glucose, same doses) was 0.169 and 0.181 and 0.185 and 0.187 and 0.178 (2×) and 0.207, the “blood glucose after glucose loading / glucose tolerance (in words)” value ([5]; ICR mice, 100 mg kg^‒1 46a oral) was “significantly lowered the peak value of blood glucose after glucose loading; also recorded: enhanced glucose tolerance” and the blood glucose ([6]; 0h, KKAy mice, single dose 46a 100 mg kg^‒1 or dapagliflozin 5 mg kg^‒1) was 391.7 mg/dL and 463.4 mg/dL and 285.8 mg/dL and 498.6 mg/dL and 457.9 mg/dL and 376.2 mg/dL and 436.2 mg/dL. The blood glucose ([6]; 1h, same doses) was 205.3 mg/dL and 315 mg/dL and 262 mg/dL and 341.1 mg/dL and 283 mg/dL and 307.9 mg/dL and 329 mg/dL, the blood glucose ([6]; 2h, same doses) was 212.4 mg/dL and 285.2 mg/dL and 250.2 mg/dL and 371.1 mg/dL and 288 mg/dL and 260.7 mg/dL and 328.6 mg/dL and the blood glucose ([6]; 4h, same doses) was 205.2 mg/dL and 255.5 mg/dL and 229.1 mg/dL and 299.5 mg/dL and 368.8 mg/dL and 243.8 mg/dL and 201.2 mg/dL. The blood glucose ([6]; 6h, same doses) was 206.4 mg/dL and 242.8 mg/dL and 220.9 mg/dL and 332.5 mg/dL and 314.8 mg/dL and 301 mg/dL and 171 mg/dL, the blood glucose ([6]; 8h, same doses) was 215.9 mg/dL and 255.1 mg/dL and 195.2 mg/dL and 297 mg/dL and 255.7 mg/dL and 245.8 mg/dL and 197.4 mg/dL and the blood glucose ([6]; 24h, same doses) was 269.1 mg/dL and 338.2 mg/dL and 240.2 mg/dL and 308.3 mg/dL and 291.4 mg/dL and 330 mg/dL and 166.4 mg/dL. For the same compound, the blood glucose ([6]; 48h, same doses) was 250.5 mg/dL and 412.5 mg/dL and 265.3 mg/dL and 242.5 mg/dL and 425.9 mg/dL and 396 mg/dL and 189.5 mg/dL, the “blood glucose level (in words)” value ([6]; KKAy mice, single administration, vs control (solvent-treated) group) was “decreased at 1 h after 46a administration and was maintained at a lower level for 24 h; also recorded: lowered the blood glucose” and the glucose in urine ([7]; 4h) was 11366 mg/dL and 12692 mg/dL and 12124 mg/dL. The glucose in urine ([7]; 6h) was 8584 mg/dL and 12278 mg/dL and 11404 mg/dL and 9012 mg/dL, the “urinary glucose excretion (in words)” value ([7]; single administration) was “elevated urinary glucose excretion; also recorded: promoted urinary glucose excretion” and the inhibition at 10 µM [3] was 50.4%.
